Consider two compounds from patent US7115636B2, “Hetrocyclic aryl sulphonamides” (Bayer Healthcare AG, priority 2001, dated 2006).

What all share (format): cell-based
Series [1] can be described thus: Cytotoxicity on HELF cells (anti-HCMV cytopathogenicity test plates). Conditions: human, human lung fibroblasts (HELF), 6 days incubation. Here is the method: (§1) The test compounds were employed as 50 millimolar (mM) solutions in dimethyl sulfoxide (DMSO). Ganciclovir, foscarnet and cidofovir served as reference compounds. After the addition of 2 μl in each case of the 50, 5, 0.5 and 0.05 mM DMSO stock solutions to 98 μl each of cell culture medium in row […] in duplicate, 1:2 dilutions using 50 μl each of medium up to row 11 of the 96-well plate were carried out. The wells in rows 1 and 12 each contained 50 μl of medium. 150 μl each of a suspension of 1×10^4 cells (human lung fibroblasts [HELF]) were then pipetted into the wells (row 1=cell control) or a mixture of HCMV-infected and non-infected HELF cells (M.O.I.=0.001-0.002), i.e. 1-2 infected cells to 1000 non-infected cells, was pipetted into rows 2-12. Row 12 (without substance) served as a virus control. The final test concentrations were 250-0.0005 μM. The plates were incubated at 37° C./5% CO2 for 6 days, i.e. until all cells were infected in the virus controls (100% cytopathogenic effect [CPE]). The wells were then fixed by addition of a mixture of formalin and Giemsa's stain and stained (30 minutes), washed with double-distilled water and dried at 50° C. in a drying oven. The plates were then evaluated visually using an overhead microscope (Plaque multiplier from Technomara). […]
(Protection from cytopathic effect is a common read-out in antiviral testing.)

Series [2] deals with MCMV (murine cytomegalovirus). Put plainly: Anti-MCMV cytopathogenicity test. Conditions: Murid betaherpesvirus 1, 120 h; MCMV on 3T3 mouse cells, M.O.I. 0.05–0.1, 5 days. Here is the method: Anti-HCMV (anti-human cytomegalovirus) and anti-MCMV (anti-murine cytomegalovirus) cytopathogenicity tests:
The test compounds were employed as 50 millimolar (mM) solutions in dimethyl sulfoxide (DMSO). Ganciclovir, foscarnet and cidofovir served as reference compounds. After the addition of 2 μl in each case of the 50, 5, 0.5 and 0.05 mM DMSO stock solutions to 98 μl each of cell culture medium in row 2 A-H in duplicate, 1:2 dilutions using 50 μl each of medium up to row 11 of the 96-well plate were carried out. The wells in rows 1 and 12 each contained 50 μl of medium. 150 μl each of a suspension of 1×10^4 cells (human lung fibroblasts [HELF]) were then pipetted into the wells (row 1=cell control) or a mixture of HCMV-infected and non-infected HELF cells (M.O.I.=0.001–0.002), i.e. 1–2 infected cells to 1000 non-infected cells, was pipetted into rows 2–12. Row 12 (without substance) served as a virus control. The final test concentrations were 250–0.0005 μM. The plates were incubated at 37° C./5% CO2 for 6 days, i.e. until all cells were infected in the virus controls (100% cytopathogenic effect [CPE]). The wells were then fixed by addition of a mixture of formalin and Giemsa's stain and stained (30 minutes), washed with double-distilled water and dried at 50° C. in a drying oven. The plates were then evaluated visually using an overhead microscope (Plaque multiplier from Technomara). […]

Series [3] can be described thus: Cytotoxicity on 3T3 cells (anti-MCMV test). Conditions: 3T3 mouse cells, 5 days incubation.
The test system of series [4] is HCMV (human cytomegalovirus). Put plainly: Anti-HCMV cytopathogenicity test. Conditions: Human betaherpesvirus 5, 144 h; inhibition of CPE by 50%, HCMV-infected HELF cells, M.O.I. 0.001–0.002, 6 days. On the procedure:
as §1, with “Anti-HCMV (anti-human cytomegalovirus) and anti-MCMV (anti-murine cytomegalovirus) cytopathogenicity tests: The test” for “The test”

One may read the CC50 as the concentration giving 50% cytotoxicity. As a reminder, the EC50 is the concentration needed to bring the measured effect to its halfway point. In the case of `CC1(C(=O)Nc2ccc(NS(=O)(=O)c3cccc(-c4noc([C@@H](N)CCCCN)n4)c3)cc2)CC1` [Example 1], the CC50 at 6 days in series [1] was greater than 250000 nM. Also, the EC50 in series [2] amounted to 35 nM; in series [4] it was 28 nM. In series [3], this compound had a cytotoxic concentration (CC50) at 5 days of 18000 nM.
`CC(C)[C@H](N)c1nc(-c2ccc(S(=O)(=O)Nc3cccc(NC(=O)C(C)(C)CF)c3)cc2)no1` [Example 3, N-(3-{[(4-{5-[(1S)-1-Amino-2-methylpropyl]-1,2,4-oxadiazol-3-yl}phenyl)sulphonyl]amino}phenyl)-3-fluoro-2,2-dimethylpropanamide] displayed a half-maximal cytotoxic concentration (CC50) at 6 days in series [1] greater than 250000 nM. For the same compound, the EC50 in series [2] and in series [4] was 74 nM in each case. The 50% cytotoxic concentration (CC50) at 5 days in series [3] was 63000 nM.
